| melting point | SMILES |
| --- | --- |
| 114 to 116 °C | COC(=O)C(C(=O)OC)C(Cc1cc(Cl)ccc1N)c1ccc(OC)cc1 (centres undefined) |
| 121 to 123 °C | COc1cc(CCNC(=O)N(C)O)cc(OC)c1 |
| 162 to 163 °C | COC1=C(OC)C(=O)c2c(NC(C)=O)cccc2C1=O |
| 119 to 121 °C | COc1ccccc1N1CCN(CCN(C(=O)C2CCCCC2)c2ccccc2[N+](=O)[O-])CC1 |
| 114 to 115 °C | CC1(C)Nc2cccc3cccc(c23)N1 |
| 168 to 174 °C | CCCc1nc2c(N)nc3cc(Oc4cccc(NCC)c4)ccc3c2n1CC(C)C |
| 156 to 158 °C | CNc1cc(-n2ccc3ccccc32)cc(C)n1 |
| 222 °C | CC(C)(C)OC(=O)N1CC=C(C2=C(C#N)C(c3cccc4nonc34)c3c[nH]nc3N2)CC1 (centres undefined) |
| 276 to 279 °C | O=C1Nc2ccc([N+](=O)[O-])cc2Cn2nnnc21 |
| 258 °C | O=C(Nc1cccc(S(=O)(=O)Nc2ccccc2)c1)c1cnn2c(C(F)(F)F)cc(-c3ccc(C(F)(F)F)cc3)nc12 |
| 188 to 190 °C | CC(=O)ON1C(C)(C)NC(=O)C1(C)C |
| 45.8 to 46.8 °C | O=C(CCl)[C@H](Cc1ccccc1)N(Cc1ccccc1)Cc1ccccc1 |
| 239 to 241 °C | CC(C)CN1C(=O)C2=C3SC(S(N)(=O)=O)=CC1CC(C2)S3(=O)=O (centres undefined) |
| 157 to 159 °C | CCc1nc2c(N)nc(C)c(C)c2n1CCOCCN1CCCS1(=O)=O |
| 70 to 72 °C | COc1ccc(C(=O)CC(=O)C(F)F)cc1F |
| 73 to 74 °C | C=CCOC(=O)c1c(C)c(OC)cc(O)c1C=O |
| 55 to 63 °C | CC(=O)C(=NO)C(=O)OC(C)(C)C |
| 109 to 110 °C | CCCCc1ccc(-c2ncc(C#N)cn2)cc1 |
| 158 °C | COc1ccc(C(=O)NC[C@@H](C(=O)NO)N2CCN(S(C)(=O)=O)CC2)cc1 |
| 135 to 137 °C | CCN1C(=O)OC(=Cc2ccc3c(c2)OCO3)C1=O |
| 186 to 188 °C | COC(=O)C(Cc1cc(C)c(Oc2ccc(O)c(Cc3ccc(OC)nc3)c2)c(C)c1)NC(C)=O (centres undefined) |
| 234 to 236 °C | CC(C)c1n[nH]c2c(NCc3ccc(O)cc3)ncnc12 |
| 173 to 178 °C | CC(C)c1ccc2c(c1)NC(=O)CC(c1ccnc(C#N)c1)=N2 |
| 62 to 67 °C | Cc1cc(F)ccc1-c1ccc(S(=O)(=O)N2c3ccccc3CC2C(=O)O)cc1 (centres undefined) |

| melting point | SMILES |
| --- | --- |
| 223 to 224 °C | CCn1ncc2c(NCC3CCCCC3)c3cc(O)ccc3nc21 |
| 165 to 166 °C | CON=C(C)c1cccc(S(N)(=O)=O)c1 |
| 147 to 151 °C | Cn1cc(-c2ccc(C(F)(F)F)cc2)c(=O)c(-c2cccc(Cl)c2)c1 |
| 241 to 242 °C | O=C1Nc2ccc(Br)cc2C2(c3ccccn3)OCCN12 (centres undefined) |
| > 300 °C | O=c1[nH]c2ccc(-c3ncc[nH]3)cc2[nH]c1=O |
| > 300 °C | Cn1cncc1C(O)(c1ccc(Cl)cc1)c1ccc2c(c1)C(c1cccc(Cl)c1)OCC(=S)N2 (centres undefined) |
| 201 to 203 °C | O=C(Nc1nccs1)C1CSc2sccc2C1=O (centres undefined) |
| 80 to 82 °C | CC[C@H](C)CNC(=O)[C@@H](C[C@H](O)[C@H](CC1CCCCC1)NC(=O)[C@H](Cc1cscn1)NC(=O)[C@@H](CC(=O)N1CCOCC1)Cc1ccccc1)C(C)(C)O |
| 168 to 170 °C | CC(O)c1cccc(-c2ccc3nc(-c4ccc(Cl)cc4)cn3c2)c1 (centres undefined) |
| 115 to 117 °C | CC(C)N1CCC(CN2CCN(CCCN3CCCCC3)C2=C(C#N)C#N)CC1 |
| 182 to 185 °C | COc1ccccc1NC(=O)Nc1ccc(CC(=O)O)cc1OC |
| 142 °C | CCOC(=O)C1=C(N)N=C(N)C(C)(C(=O)OCC)C1c1cccc([N+](=O)[O-])c1 (centres undefined) |
| 167 to 170 °C | CCOC(=O)c1c(=O)c2cc(F)c(N3CCN(C)CC3)cc2n2ccccc12 |
| 118 to 120 °C | CCN(CC)CCNC(=O)c1cc(Cl)c(N)cc1OCCSC |
| 119 to 120 °C | COC(=O)Cc1ccccc1OCc1ccc(OCc2nc(-c3ccccc3)sc2C)nc1 |
| 172 to 173 °C | CCOC(=O)c1cn(C)c2sc(CN3CCOCC3)c(C)c2c1=O |
| 73 to 75 °C | CCCc1ccccc1OCCCOc1ccc2c(=O)cc(C(=O)OCC)oc2c1 |
| 163 to 164 °C | COC(=O)N[C@@H](Cc1ccccc1)[C@H](O)CCl |
| 144 to 145 °C | CNc1ccc(C=Cc2ccc(N)cc2)cc1 |
| 126 °C | CCCCCc1c(C(C)C)cc(C(C)C)c(C(C)O)c1-c1ccc(F)cc1 (centres undefined) |
| 156 to 158 °C | COc1ccc(OC)c2c1COC2O (centres undefined) |
| 238 to 242 °C | Nc1ncnc2c1ncn2Cc1oc2ccc(Br)cc2c(=O)c1-c1ccc(F)cc1 |
| 169 to 170 °C | O=C(Cc1ccccc1)c1c(O)c2cccnc2n(-c2ccccc2)c1=O |
| 142 to 143 °C | CCOC(=O)C1C(c2ccc([N+](=O)[O-])cc2)CC(=O)N1C (centres undefined) |

| melting point | SMILES |
| --- | --- |
| 159 to 161 °C | CCCCS(=O)(=O)NC1Cc2ccc(C3=NNC(=O)CC3(C)C)cc2C1 (centres undefined) |
| 34.5 to 36 °C | CCOC(=O)CCCCCBr |
| 115 to 120 °C | COc1c2c(c(OC)c(OC)c1OC)CCC(CCOc1ccc(-c3ccccc3)cc1)CC2 |
| 170 °C | CC(C)(C)OC(=O)CSc1cccc(-c2nc(=O)c3ccccc3s2)n1 |
| 108 to 109 °C | Cc1c(NCc2ccccc2)cc2c(c1C)OCC2c1ccc(C(C)C)cc1 (centres undefined) |
| 246 °C | CN(C)c1ccc(N=Nc2ccc(C(=O)Nc3ccc4[nH]nnc4c3)cc2)cc1 |
| 174 to 175 °C | COc1cc(C(=O)CCC(=O)O)ccc1O |
| 197 to 199 °C | CONC(=O)c1ccc(-c2ccc3nnn(Cc4ccc5ncccc5c4)c3n2)cc1F |
| 187 to 188 °C | O=[N+]([O-])c1cc(Cl)ccc1NCCSSCCNc1ccc(Cl)cc1[N+](=O)[O-] |
| 88 to 90 °C | Nc1cccc(C(=O)NCCCn2ccnc2)c1 |
| 137 to 141 °C | CCC(=Cc1cccnc1)C(=O)NCCCCN1CCN(C(c2ccccc2)c2ccccc2)CC1 |
| 132 to 135 °C | CC(=O)NCc1ccc(C(C)(C)NC(=O)OCc2ccccc2)cc1 |
| 204 to 206 °C | c1ccc(C(CCCc2c[nH]cn2)c2ccccc2)cc1 |
| > 230 °C | CSc1nn2c(N(C)C)cc(C)nc2c1S(=O)(=O)c1ccc2ccccc2c1 |
| 221 to 222 °C | O=c1c2cc(F)c(N3CCCC3)nc2n(-c2ccccc2F)c(=O)n1OCc1ccccc1 |
| 294 to 295 °C | CC(=O)Nc1ccc2[nH]c(=O)c(=O)n(CC(C)(C)C)c2c1 |
| 136 to 137 °C | CNc1ccc(OCCN2CCC(Cc3ccc(C)cc3)CC2)cc1 |
| 63 to 68 °C | O=C1OC(=O)[C@@H]2CCC[C@H]12 |
| 66.5 to 67 °C | COC(=O)CCCOc1ccccc1I |
| 169 to 170 °C | COC(=O)c1ccc(Cn2c3c(c4cc(F)cc(F)c42)CCCC3CC(=O)O)cc1 (centres undefined) |
| 112 to 113 °C | O=C(NC(Cc1ccccc1)C(=O)O)OCc1ccc(COc2ccc(F)cc2)cc1 (centres undefined) |
| 157 °C | CCN(C(=O)n1nc2c(Cl)c(Cl)c(Cl)c(Cl)c2n1)c1ccccc1 |
| 85 °C | COc1nc(NCCCN2CCOCC2)nc(OC)c1NC(=O)c1coc(Oc2cccc(C(C)(C)C)c2)n1 |
| 76 to 77 °C | CCOc1ccnc(F)c1N |

| melting point | SMILES |
| --- | --- |
| 140 to 141 °C | CCOC(=O)C1=C(C)NC(CCn2ccnc2)=C(C(=O)OCC)C1c1ccccc1[N+](=O)[O-] (centres undefined) |
| 121 to 124 °C | COc1ccc(C2=NN(Cc3ccncc3)C(=O)[C@H]3CC=CC[C@@H]23)cc1OC (relative stereo) |
| 154 to 155 °C | O=CN(O)C(CCc1ncc(F)cn1)CS(=O)(=O)N1CCN(c2ccc(Cl)cn2)CC1 (centres undefined) |
| 127 °C | COc1ncccc1-c1cc(F)c(F)c(OC2SCC(O)C(O)C2O)c1 (centres undefined) |
| 229 to 230 °C | O=C(NNc1ccccc1)c1nc(Cl)c(Cl)[nH]1 |
| 139 to 141 °C | CCC(C(C)=CC(CNC(=O)c1nccnc1N)=NO)[N+](=O)[O-] (centres undefined) |
| 182 to 183 °C | COc1ccc(-c2cc(=O)n(Cc3ccncc3)nc2-c2ccc(OC)cc2)cc1 |
| 227 to 228 °C | COc1ccc2c(c1)C1=C(CC2)NC(=O)CC1 |
| 117 to 120 °C | O=S(=O)(c1ccccc1F)n1ccc2c(OCc3ccccc3)cccc21 |
| 260 to 266 °C | Cc1cc(C)c(N2CCCCC2=O)cc1NS(=O)(=O)C(F)(F)F |
| 176 to 180 °C | O=S1(=O)CS(=O)(=O)OCCO1 |
| 172 to 174 °C | Cc1nc(N2CCN(CC3CC3)C2=O)sc1C(=O)NCc1ncco1 |
| 217 to 218 °C | Cc1nc2cc(C)c(OCC(C)(C)CS(N)(=O)=O)nn2n1 |
| 114 to 116 °C | Cc1ccc(N=C=C2C=CC=CN2)c(C)c1[N+](=O)[O-] |
| 200 to 217 °C | NC(=O)NC(=O)c1coc2ccccc2c1=O |
| 49 to 53 °C | CCCCCCCCCCCCCCOc1ccc(O)c(C(=O)OC)c1 |
| 86 to 87 °C | COc1ccnc(CSc2nc3cc(-n4ccnc4)c(F)cc3[nH]2)c1 |
| 78 to 80 °C | COc1cccc([N+](=O)[O-])c1NC(=O)OCc1ccccc1 |
| 144 to 145 °C | CC(=O)Nc1ccc(N2C(=O)C3CCC2n2c(=O)n(-c4ccccc4)c(=O)n23)cc1 (centres undefined) |
| > 200 °C | COc1cc(CC(=O)Nc2ccc(I)cc2)ccc1NC(=O)Nc1ccccc1C |
| 133 to 134 °C | Cc1ccccc1Oc1ccccc1C(=O)O |
| 158 to 159 °C | COCCOc1cc2ncc(C#N)c(Nc3cc(OC)c(Cl)cc3Cl)c2cc1OCCN1CCOCC1 |
| 195 to 196 °C | CCCOc1c(OCCCN2C(=O)c3ccccc3C2=O)cc(C2CCC(c3cc(OC)c(OC)c(OC)c3)O2)cc1S(=O)(=O)CCC (centres undefined) |

| SMILES | melting point |
| --- | --- |
| CC1(C)C(=O)N(c2ccc(C#N)c(C(F)(F)F)c2)C(=S)N1CCO | 130 °C |
| CC(C)(C)CC(C)(C)c1cc(-n2nc3ccc(C(F)(F)F)cc3n2)c(O)c(C(C)(C)c2ccccc2)c1 | 119 to 121 °C |
| CN1CCC23c4c5ccc(O[Si](C)(C)C(C)(C)C)c4OC2C(O[Si](C)(C)C(C)(C)C)C=CC3C1C5 (centres undefined) | 118 to 119 °C |
| CCc1cccc2c(C(=O)c3cccc(Cl)c3Cl)c(C)n(CCCS(=O)(=O)N(C)C)c12 | 18 °C |
